What was measured:
Test in all cases: KINOMEscan
Type in all cases: binding
Conditions in all cases: 1 uM
KIT (L576P) = KIT (L576P) (Homo sapiens (Human), UniProt P10721, L576P)
NIK = NIK (Homo sapiens (Human), UniProt Q99558)
TXK = TXK (Homo sapiens (Human), UniProt P42681)
[1] = target: EGFR (L747-T751del, Sins) (Homo sapiens (Human), UniProt P00533, DEL747-751/INS746S)
MST4 = MST4 (Homo sapiens (Human), UniProt Q9P289)
CAMK1D = CAMK1D (Homo sapiens (Human), UniProt Q8IU85)
FLT3 (D835H) = FLT3 (D835H) (Homo sapiens (Human), UniProt P36888, D835H)
[2] = target: RSK2 (Kin.Dom.1-N-terminal) (Homo sapiens (Human), UniProt P51812)
INSRR = INSRR (Homo sapiens (Human), UniProt P14616)
FLT3 (D835Y) = FLT3 (D835Y) (Homo sapiens (Human), UniProt P36888, D835Y)
YSK4 = YSK4 (Homo sapiens (Human), UniProt Q56UN5)
MAK = MAK (Homo sapiens (Human), UniProt P20794)
ACVRL1 = ACVRL1 (Homo sapiens (Human), UniProt P37023)
KIT (A829P) = KIT (A829P) (Homo sapiens (Human), UniProt P10721, A829P)
FGFR1 = FGFR1 (Homo sapiens (Human), UniProt P11362)
TAOK3 = TAOK3 (Homo sapiens (Human), UniProt Q9H2K8)
JNK2 = JNK2 (Homo sapiens (Human), UniProt P45984)
CDK11 = CDK11 (Homo sapiens (Human), UniProt Q9BWU1)
CSNK1A1L = CSNK1A1L (Homo sapiens (Human), UniProt Q8N752)
DMPK = DMPK (Homo sapiens (Human), UniProt Q09013)
DAPK1 = DAPK1 (Homo sapiens (Human), UniProt P53355)
PKMYT1 = PKMYT1 (Homo sapiens (Human), UniProt Q99640)
CDK9 = CDK9 (Homo sapiens (Human), UniProt P50750)
SgK110 = SgK110 (Homo sapiens (Human), UniProt P0C264)
PRKX = PRKX (Homo sapiens (Human), UniProt P51817)
TRKA = TRKA (Homo sapiens (Human), UniProt P04629)
IKK-alpha = IKK-alpha (Homo sapiens (Human), UniProt O15111)
STK16 = STK16 (Homo sapiens (Human), UniProt O75716)
WNK3 = WNK3 (Homo sapiens (Human), UniProt Q9BYP7)
[3] = target: RPS6KA5 (Kin.Dom.2-C-terminal) (Homo sapiens (Human), UniProt O75582)
PIK3CA (C420R) = PIK3CA (C420R) (Homo sapiens (Human), UniProt P42336, C420R)
TRKB = TRKB (Homo sapiens (Human), UniProt Q16620)
PKAC-alpha = PKAC-alpha (Homo sapiens (Human), UniProt P17612)
PRP4 = PRP4 (Homo sapiens (Human), UniProt Q13523)
MKNK2 = MKNK2 (Homo sapiens (Human), UniProt Q9HBH9)
NIM1 = NIM1 (Homo sapiens (Human), UniProt Q8IY84)
YES = YES (Homo sapiens (Human), UniProt P07947)
ALK (L1196M) = ALK (L1196M) (Homo sapiens (Human), UniProt Q9UM73, L1196M)
DCAMKL3 = DCAMKL3 (Homo sapiens (Human), UniProt Q9C098)
ZAK = ZAK (Homo sapiens (Human), UniProt Q9NYL2)

Sequence of TAOK3 (Q9H2K8 whole entry): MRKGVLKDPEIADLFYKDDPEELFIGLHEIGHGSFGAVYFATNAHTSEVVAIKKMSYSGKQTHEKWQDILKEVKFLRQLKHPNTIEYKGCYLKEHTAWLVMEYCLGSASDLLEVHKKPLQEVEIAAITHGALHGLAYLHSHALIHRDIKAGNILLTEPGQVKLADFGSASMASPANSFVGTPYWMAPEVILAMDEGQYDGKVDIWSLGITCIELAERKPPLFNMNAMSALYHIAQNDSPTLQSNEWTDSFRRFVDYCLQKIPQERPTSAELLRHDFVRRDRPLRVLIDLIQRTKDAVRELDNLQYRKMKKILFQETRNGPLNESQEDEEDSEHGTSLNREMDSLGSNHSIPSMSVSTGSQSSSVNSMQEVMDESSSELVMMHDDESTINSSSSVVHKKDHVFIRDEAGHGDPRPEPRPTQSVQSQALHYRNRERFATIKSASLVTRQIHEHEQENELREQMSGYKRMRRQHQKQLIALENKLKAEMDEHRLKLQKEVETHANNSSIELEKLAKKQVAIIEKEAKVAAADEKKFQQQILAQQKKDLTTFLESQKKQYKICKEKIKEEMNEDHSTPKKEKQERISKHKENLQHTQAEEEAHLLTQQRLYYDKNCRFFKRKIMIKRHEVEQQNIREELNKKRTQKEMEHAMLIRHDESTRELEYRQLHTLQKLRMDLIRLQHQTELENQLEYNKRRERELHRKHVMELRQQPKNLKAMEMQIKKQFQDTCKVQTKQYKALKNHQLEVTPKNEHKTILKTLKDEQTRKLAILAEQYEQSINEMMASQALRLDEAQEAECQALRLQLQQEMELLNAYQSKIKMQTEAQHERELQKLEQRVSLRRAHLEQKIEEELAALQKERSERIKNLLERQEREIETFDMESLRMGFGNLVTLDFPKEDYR
Sequence of TRKA (P04629 33-796): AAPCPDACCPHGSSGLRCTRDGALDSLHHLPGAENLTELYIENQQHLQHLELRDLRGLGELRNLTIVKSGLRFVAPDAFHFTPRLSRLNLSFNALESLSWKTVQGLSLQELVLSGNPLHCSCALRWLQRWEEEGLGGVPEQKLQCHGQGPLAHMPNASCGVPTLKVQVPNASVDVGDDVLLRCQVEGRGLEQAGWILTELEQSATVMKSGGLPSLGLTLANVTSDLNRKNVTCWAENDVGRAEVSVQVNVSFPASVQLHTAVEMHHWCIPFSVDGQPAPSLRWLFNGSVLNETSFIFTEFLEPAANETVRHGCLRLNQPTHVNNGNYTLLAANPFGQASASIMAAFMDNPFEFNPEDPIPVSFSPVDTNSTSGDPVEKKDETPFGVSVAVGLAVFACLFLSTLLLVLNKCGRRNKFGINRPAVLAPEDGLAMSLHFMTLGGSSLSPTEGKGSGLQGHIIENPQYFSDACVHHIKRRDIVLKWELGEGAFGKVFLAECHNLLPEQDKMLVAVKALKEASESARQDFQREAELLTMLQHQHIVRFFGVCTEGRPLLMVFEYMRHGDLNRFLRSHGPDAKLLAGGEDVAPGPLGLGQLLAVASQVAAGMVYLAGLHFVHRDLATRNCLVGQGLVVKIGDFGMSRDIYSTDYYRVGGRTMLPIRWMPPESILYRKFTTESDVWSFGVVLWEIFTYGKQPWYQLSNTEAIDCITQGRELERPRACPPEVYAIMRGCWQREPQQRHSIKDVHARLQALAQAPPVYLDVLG
Sequence of YSK4 (Q56UN5 whole entry): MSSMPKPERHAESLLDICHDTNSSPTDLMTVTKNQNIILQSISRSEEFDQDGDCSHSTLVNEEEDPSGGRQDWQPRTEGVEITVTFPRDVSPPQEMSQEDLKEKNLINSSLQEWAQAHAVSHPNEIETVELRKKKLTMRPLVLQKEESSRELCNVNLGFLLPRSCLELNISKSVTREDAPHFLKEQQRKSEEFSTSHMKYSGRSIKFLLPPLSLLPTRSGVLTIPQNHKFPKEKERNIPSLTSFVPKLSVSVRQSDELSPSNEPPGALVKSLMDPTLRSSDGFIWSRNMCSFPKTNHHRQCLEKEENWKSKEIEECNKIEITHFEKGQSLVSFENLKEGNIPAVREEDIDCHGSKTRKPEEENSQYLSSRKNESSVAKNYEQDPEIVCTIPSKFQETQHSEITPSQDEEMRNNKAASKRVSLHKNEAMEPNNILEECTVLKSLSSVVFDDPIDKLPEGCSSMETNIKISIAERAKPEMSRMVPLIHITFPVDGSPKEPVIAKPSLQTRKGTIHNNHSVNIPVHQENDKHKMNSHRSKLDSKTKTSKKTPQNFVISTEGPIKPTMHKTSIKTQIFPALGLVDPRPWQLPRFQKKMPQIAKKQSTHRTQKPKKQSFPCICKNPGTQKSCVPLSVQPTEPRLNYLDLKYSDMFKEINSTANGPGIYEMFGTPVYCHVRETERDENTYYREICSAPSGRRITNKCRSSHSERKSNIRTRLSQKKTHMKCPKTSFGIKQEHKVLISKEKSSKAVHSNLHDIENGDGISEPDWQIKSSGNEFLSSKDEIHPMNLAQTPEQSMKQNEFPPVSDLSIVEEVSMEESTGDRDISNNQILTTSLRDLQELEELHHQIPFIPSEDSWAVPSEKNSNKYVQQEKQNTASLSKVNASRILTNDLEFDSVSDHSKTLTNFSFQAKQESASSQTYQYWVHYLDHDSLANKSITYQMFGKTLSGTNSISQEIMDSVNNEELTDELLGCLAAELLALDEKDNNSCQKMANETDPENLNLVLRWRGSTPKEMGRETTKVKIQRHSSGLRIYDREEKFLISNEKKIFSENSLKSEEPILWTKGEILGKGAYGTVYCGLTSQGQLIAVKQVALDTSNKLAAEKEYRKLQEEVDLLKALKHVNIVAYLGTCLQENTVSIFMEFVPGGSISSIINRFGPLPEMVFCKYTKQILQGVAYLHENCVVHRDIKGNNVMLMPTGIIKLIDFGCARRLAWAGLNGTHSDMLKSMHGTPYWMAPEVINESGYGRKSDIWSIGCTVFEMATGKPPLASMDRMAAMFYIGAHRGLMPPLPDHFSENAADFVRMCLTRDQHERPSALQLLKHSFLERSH
Sequence of MAK (P20794 whole entry): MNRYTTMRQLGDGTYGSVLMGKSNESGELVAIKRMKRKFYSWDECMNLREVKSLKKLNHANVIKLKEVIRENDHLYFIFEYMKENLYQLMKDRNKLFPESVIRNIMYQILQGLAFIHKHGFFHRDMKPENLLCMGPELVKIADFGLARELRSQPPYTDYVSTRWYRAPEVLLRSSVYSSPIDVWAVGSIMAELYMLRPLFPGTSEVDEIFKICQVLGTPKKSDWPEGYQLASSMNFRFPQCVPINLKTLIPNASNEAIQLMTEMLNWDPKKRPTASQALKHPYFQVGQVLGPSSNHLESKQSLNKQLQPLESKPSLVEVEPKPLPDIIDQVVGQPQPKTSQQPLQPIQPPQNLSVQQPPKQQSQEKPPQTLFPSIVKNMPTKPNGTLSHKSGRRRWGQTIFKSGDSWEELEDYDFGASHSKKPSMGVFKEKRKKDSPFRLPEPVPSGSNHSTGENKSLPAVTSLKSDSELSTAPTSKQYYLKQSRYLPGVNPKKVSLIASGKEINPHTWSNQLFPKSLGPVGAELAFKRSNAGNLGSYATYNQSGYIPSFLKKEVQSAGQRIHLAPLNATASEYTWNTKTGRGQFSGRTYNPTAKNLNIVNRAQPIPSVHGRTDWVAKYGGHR
Sequence of CAMK1D (Q8IU85 whole entry): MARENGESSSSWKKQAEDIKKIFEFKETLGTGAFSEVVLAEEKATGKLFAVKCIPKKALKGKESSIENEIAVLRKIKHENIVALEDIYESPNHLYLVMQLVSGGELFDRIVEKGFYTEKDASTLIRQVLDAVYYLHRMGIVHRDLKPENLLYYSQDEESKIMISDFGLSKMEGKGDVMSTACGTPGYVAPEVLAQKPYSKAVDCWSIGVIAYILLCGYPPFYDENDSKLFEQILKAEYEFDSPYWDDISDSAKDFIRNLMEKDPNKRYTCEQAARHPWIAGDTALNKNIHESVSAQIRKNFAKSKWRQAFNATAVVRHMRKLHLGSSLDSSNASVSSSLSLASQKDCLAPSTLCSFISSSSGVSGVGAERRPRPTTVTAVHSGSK
Sequence of TXK (P42681 whole entry): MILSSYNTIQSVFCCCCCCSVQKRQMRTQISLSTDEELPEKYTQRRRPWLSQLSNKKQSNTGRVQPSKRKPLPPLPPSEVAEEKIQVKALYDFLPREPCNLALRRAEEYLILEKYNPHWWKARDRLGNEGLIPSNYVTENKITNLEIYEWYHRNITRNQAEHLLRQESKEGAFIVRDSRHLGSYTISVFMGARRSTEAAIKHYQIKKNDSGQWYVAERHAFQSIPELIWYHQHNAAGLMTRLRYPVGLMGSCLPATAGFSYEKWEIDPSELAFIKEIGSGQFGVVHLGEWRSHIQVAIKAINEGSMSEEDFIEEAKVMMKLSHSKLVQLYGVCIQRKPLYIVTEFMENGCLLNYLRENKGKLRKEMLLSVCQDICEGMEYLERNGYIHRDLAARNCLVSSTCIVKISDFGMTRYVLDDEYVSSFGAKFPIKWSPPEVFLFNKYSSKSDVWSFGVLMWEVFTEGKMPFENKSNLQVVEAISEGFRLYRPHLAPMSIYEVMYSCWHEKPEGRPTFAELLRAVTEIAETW
Sequence of MKNK2 (Q9HBH9 whole entry): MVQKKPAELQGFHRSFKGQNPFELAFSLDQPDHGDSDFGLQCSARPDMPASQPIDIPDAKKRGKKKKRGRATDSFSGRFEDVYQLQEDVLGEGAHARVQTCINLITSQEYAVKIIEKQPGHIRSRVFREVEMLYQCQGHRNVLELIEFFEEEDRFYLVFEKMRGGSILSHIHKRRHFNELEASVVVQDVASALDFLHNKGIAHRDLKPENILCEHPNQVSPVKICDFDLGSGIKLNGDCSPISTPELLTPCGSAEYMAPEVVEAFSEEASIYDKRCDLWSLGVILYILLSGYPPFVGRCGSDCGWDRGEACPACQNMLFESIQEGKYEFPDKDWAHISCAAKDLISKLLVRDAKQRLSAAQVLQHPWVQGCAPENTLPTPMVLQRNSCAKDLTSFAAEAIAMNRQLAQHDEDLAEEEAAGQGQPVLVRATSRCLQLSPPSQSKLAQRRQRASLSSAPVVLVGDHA

COc1ccc(N2C(=O)N(c3c(C)cccc3C)Cc3cnc(Nc4ccc(N5CCN(C)CC5)cc4)nc32)c(OC)c1 [HG-11-136-01]
KINOMEscan KIT (L576P) (KIT (L576P)): 0 | KINOMEscan NIK (NIK): 36 | KINOMEscan TXK (TXK): 0.25 | KINOMEscan EGFR (L747-T751del, Sins) [1]: 0.3 | KINOMEscan MST4 (MST4): 2.8 | KINOMEscan CAMK1D (CAMK1D): 68 | KINOMEscan FLT3 (D835H) (FLT3 (D835H)): 16 | KINOMEscan RSK2 (Kin.Dom.1-N-terminal) [2]: 12 | KINOMEscan INSRR (INSRR): 100 | KINOMEscan FLT3 (D835Y) (FLT3 (D835Y)): 14 | KINOMEscan YSK4 (YSK4): 0.4 | KINOMEscan MAK (MAK): 100 | KINOMEscan ACVRL1 (ACVRL1): 16 | KINOMEscan KIT (A829P) (KIT (A829P)): 3.6 | KINOMEscan FGFR1 (FGFR1): 0.15 | KINOMEscan TAOK3 (TAOK3): 1.8 | KINOMEscan JNK2 (JNK2): 20 | KINOMEscan CDK11 (CDK11): 89 | KINOMEscan CSNK1A1L (CSNK1A1L): 97 | KINOMEscan DMPK (DMPK): 88 | KINOMEscan DAPK1 (DAPK1): 63 | KINOMEscan PKMYT1 (PKMYT1): 42 | KINOMEscan CDK9 (CDK9): 91 | KINOMEscan SgK110 (SgK110): 8.6 | KINOMEscan PRKX (PRKX): 100 | KINOMEscan TRKA (TRKA): 41 | KINOMEscan IKK-alpha (IKK-alpha): 99 | KINOMEscan STK16 (STK16): 5.6 | KINOMEscan WNK3 (WNK3): 50 | KINOMEscan RPS6KA5 (Kin.Dom.2-C-terminal) [3]: 80 | KINOMEscan PIK3CA (C420R) (PIK3CA (C420R)): 69 | KINOMEscan TRKB (TRKB): 63 | KINOMEscan PKAC-alpha (PKAC-alpha): 85 | KINOMEscan PRP4 (PRP4): 100 | KINOMEscan MKNK2 (MKNK2): 99 | KINOMEscan NIM1 (NIM1): 42 | KINOMEscan YES (YES): 0.05 | KINOMEscan ALK (L1196M) (ALK (L1196M)): 8.2 | KINOMEscan DCAMKL3 (DCAMKL3): 77 | KINOMEscan ZAK (ZAK): 1.2

— patent US11725011B2, “Bicyclic urea kinase inhibitors and uses thereof” (The Broad Institute, Inc., priority 2016, dated 2023)
